Literature values as cited in patent US20230248696A1, “LENALIDOMIDE PRODRUGS, POLYMERIC CONJUGATES, AND FORMULATIONS THEREOF, AND THEIR USES FOR THE TREATMENT OF MULTIPLE MYELOMA” (DYNAMIC BIOLOGICS INC., priority 2019, published 2023).

Columns and labels:
KG-1 cells = conditions: cell line without chromosome 5 deletions
[1] = test system: TNF-α, IL-1β, IL-6 and IL-12
[2] = not given; remark: listed apart in the source
[3] = test system: IL-10, IL-2 and Interferon gamma (IFN-γ); conditions: peripheral blood mononuclear cells
[4] = high solubility and low permeability
TNF-alpha = conditions: in vitro, versus racemic lenalidomide
IL-2 = conditions: in vitro, versus racemic lenalidomide
[5] = in vitro, versus racemic lenalidomide

Row | SMILES | inhibition of COX-1 expression (COX-1) | inhibiting growth of Namalwa cells (Namalwa cells) | inhibition of COX-2 expression (cyclooxygenase-2 (COX-2)) | patients discontinuing maintenance therapy because of neurotoxicity (maintenance therapy) | patients with dyspepsia (multiple myeloma patients treated with lenalidomide) | inhibiting growth of KG-1 cells (KG-1 cells) | inhibition of pro-inflammatory cytokines TNF-α, IL-1β, IL-6 and IL-12 [1] | reduction of maximal plasma concentration (Cmax) by co-administration with food ([2]; co-administration with food) | oral lenalidomide dose absorbed ([2]; oral, fasting conditions) | reduction of area under the concentration-time curve (AUC) by food ([2]; oral, with food) | reduction of maximum concentration (Cmax) by food ([2]; oral, with food) | production of IL-10, IL-2 and IFN-γ [3] | BCS class [4] | potency for TNF-alpha inhibition (TNF-alpha) | potency for IL-2 induction (increased production) (IL-2) | potency for anti-proliferative activities [5]
1 | Nc1cccc2c1CN(C1CCC(=O)NC1=O)C2=O (racemic) [lenalidomide, 3-(4′ aminoisoindoline-1′-one)-1-piperidine-2,6-dione] | not | effective | inhibits | 75% | 20% | much less effective | potent inhibitor | 36% | > 90% | 20% | 50% | increases production | 3 |  |  | 
2 | [2H]C1([2H])C(=O)NC(=O)[C@@]([2H])(N2Cc3c(N)cccc3C2=O)C1([2H])[2H] [CTP-221] |  |  |  |  |  |  |  |  |  |  |  |  |  | greater potency compared to racemic lenalidomide | greater potency compared to racemic lenalidomide | greater potency compared to racemic lenalidomide
